In ChEMBL document CHEMBL3885881, “DrugMatrix”:

Species: Rattus norvegicus
Experiment: DrugMatrix - Regimen: Daily Repeat
Type: toxicity, organism-based, Sprague-Dawley
Parameters: regimen Daily Repeat, gender Male, age 6-8 weeks
Details: in vivo, po, 8 mg/kg, route oral GAVAGE, dose level High, vehicle .5 % CMC; for ABSOLUTE BASOPHIL / ABSOLUTE EOSINOPHIL / ABSOLUTE LYMPHOCYTE / ABSOLUTE MONOCYTE / ABSOLUTE SEGMENTED NEUTROPHIL / BASOPHIL / EOSINOPHIL / ERYTHROCYTE COUNT / HEMATOCRIT / HEMOGLOBIN / LEUKOCYTE COUNT / LYMPHOCYTE / MEAN CORPUSCULAR HEMOGLOBIN / MEAN CORPUSCULAR HEMOGLOBIN CONCENTRATION / MEAN CORPUSCULAR VOLUME / MONOCYTE / NEUTROPHIL / NUCLEATED RED BLOOD CELLS / PLATELET COUNT: tissue Blood
[1] = 72 h, tissue Plasma, time 3 day
[2] = 120 h, tissue Plasma, time 5 day

C=C1CC[C@H](O)C/C1=C/C=C1\CCC[C@]2(C)[C@@H]([C@H](C)CCCC(C)C)CC[C@@H]12 [CHOLECALCIFEROL]
ABSOLUTE BASOPHIL (72 h, time 3 day): 0 CELLS/uL | ABSOLUTE EOSINOPHIL (72 h, time 3 day): 42 CELLS/uL | ABSOLUTE LYMPHOCYTE (72 h, time 3 day): 8592.67 CELLS/uL | ABSOLUTE MONOCYTE (72 h, time 3 day): 336 CELLS/uL | ABSOLUTE SEGMENTED NEUTROPHIL (72 h, time 3 day): 5029.33 CELLS/uL | BASOPHIL (72 h, time 3 day): 0% | EOSINOPHIL (72 h, time 3 day): 0.33% | ERYTHROCYTE COUNT (72 h, time 3 day): 5.75 x10E6/uL | HEMATOCRIT (72 h, time 3 day): 36.93% | HEMOGLOBIN (72 h, time 3 day): 14.13 G/DL | LEUKOCYTE COUNT (72 h, time 3 day): 14 x10E3/uL | LYMPHOCYTE (72 h, time 3 day): 61.67% | MEAN CORPUSCULAR HEMOGLOBIN (72 h, time 3 day): 24.7 pg | MEAN CORPUSCULAR HEMOGLOBIN CONCENTRATION (72 h, time 3 day): 38.27 G/DL | MEAN CORPUSCULAR VOLUME (72 h, time 3 day): 64.53 fL | MONOCYTE (72 h, time 3 day): 2.33% | NEUTROPHIL (72 h, time 3 day): 35.67% | NUCLEATED RED BLOOD CELLS (72 h, time 3 day): 0.33 /100WBC | PLATELET COUNT (72 h, time 3 day): 1172.33 x10E3/uL | ALANINE AMINOTRANSFERASE [1]: 38.67 u/L | ALBUMIN [1]: 4 G/DL | ALKALINE PHOSPHATASE [1]: 218 u/L | ASPARTATE AMINOTRANSFERASE [1]: 93 u/L | BLOOD UREA NITROGEN [1]: 15.67 mg/dL | CARBON DIOXIDE [1]: 25 mmol/L | CHLORIDE [1]: 99.67 MEQ/L | CHOLESTEROL [1]: 85.33 mg/dL | CREATINE PHOSPHOKINASE [1]: 273 u/L | CREATININE [1]: 0.19 mg/dL | GLUCOSE [1]: 119.67 mg/dL | LACTATE DEHYDROGENASE [1]: 381 u/L | LIPASE [1]: 8.33 u/L | PHOSPHORUS [1]: 12.67 mg/dL | POTASSIUM [1]: 6.05 MEQ/L | SODIUM [1]: 144.53 MEQ/L | TOTAL BILIRUBIN [1]: 0.1 mg/dL | TOTAL PROTEIN [1]: 6.3 G/DL | URIC ACID [1]: 1.7 mg/dL | ABSOLUTE BASOPHIL (120 h, time 5 day): 0 CELLS/uL | ABSOLUTE EOSINOPHIL (120 h, time 5 day): 61.33 CELLS/uL | ABSOLUTE LYMPHOCYTE (120 h, time 5 day): 15719.67 CELLS/uL | ABSOLUTE MONOCYTE (120 h, time 5 day): 721.33 CELLS/uL | ABSOLUTE SEGMENTED NEUTROPHIL (120 h, time 5 day): 1931 CELLS/uL | BASOPHIL (120 h, time 5 day): 0% | EOSINOPHIL (120 h, time 5 day): 0.33% | ERYTHROCYTE COUNT (120 h, time 5 day): 6.73 x10E6/uL | HEMATOCRIT (120 h, time 5 day): 40.8% | HEMOGLOBIN (120 h, time 5 day): 16.17 G/DL | LEUKOCYTE COUNT (120 h, time 5 day): 18.43 x10E3/uL | LYMPHOCYTE (120 h, time 5 day): 84.33% | MEAN CORPUSCULAR HEMOGLOBIN (120 h, time 5 day): 24 pg | MEAN CORPUSCULAR HEMOGLOBIN CONCENTRATION (120 h, time 5 day): 39.67 G/DL | MEAN CORPUSCULAR VOLUME (120 h, time 5 day): 60.73 fL | MONOCYTE (120 h, time 5 day): 4% | NEUTROPHIL (120 h, time 5 day): 11.33% | NUCLEATED RED BLOOD CELLS (120 h, time 5 day): 0.33 /100WBC | PLATELET COUNT (120 h, time 5 day): 1207.33 x10E3/uL | ALANINE AMINOTRANSFERASE [2]: 32.67 u/L | ALBUMIN [2]: 3.77 G/DL | ALKALINE PHOSPHATASE [2]: 216 u/L | ASPARTATE AMINOTRANSFERASE [2]: 95.67 u/L | BLOOD UREA NITROGEN [2]: 30.67 mg/dL | CARBON DIOXIDE [2]: 29.33 mmol/L | CHLORIDE [2]: 97 MEQ/L | CHOLESTEROL [2]: 84.33 mg/dL | CREATINE PHOSPHOKINASE [2]: 292 u/L | CREATININE [2]: 0.31 mg/dL | GLUCOSE [2]: 184 mg/dL | LACTATE DEHYDROGENASE [2]: 195.33 u/L | LIPASE [2]: 8 u/L | PHOSPHORUS [2]: 12.17 mg/dL | POTASSIUM [2]: 6.13 MEQ/L | SODIUM [2]: 142.43 MEQ/L | TOTAL BILIRUBIN [2]: 0.1 mg/dL | TOTAL PROTEIN [2]: 6.37 G/DL
